Source: patent US11414436B2, “Non-coordinating anion type activators containing cation having large alkyl groups” (ExxonMobil Chemical Patents Inc., priority 2018, dated 2022)
Values joined by “and” are separate entries in the source; they are usually repeats but may differ in a detail not shown here. Equal values may be shown once. One block for each molecule: values may come before it.

Experiments:
[1] = Solubility studies of the activators (saturated solution in isohexane or methylcyclohexane); type: physicochemical; conditions: for Solubility limit in i-hexane (mM at 25° C.) / Solubility limit in i-hexane (wt % at 25° C.): isohexane; for Solubility limit in MeCy (mM at 25° C.): methylcyclohexane
Protocol: Solubility Studies of the Activators
Procedure for Solid Activators.
A saturated solution of each of the solid ammonium borate activators was prepared by stirring an excess of the activator with either isohexane or methylcyclohexane solvent for several hours at 25° C. The mixture was then filtered and a known volume of the filtrate was evaporated to dryness in a tared vial. The vial was then weighed to determine the mass of activator that was dissolved in the aliquot. The concentration of the saturated solution is presented in millimoles of activator per liter of solution (mM).
Procedure for Activators that Form Emulsions.
A saturated solution of the activator was prepared by slowly adding the solvent to a pre-weighed amount of the activator. The final volume was determined as the minimum amount of solvent required to convert the emulsion into a homogeneous solution. The concentration of the saturated solution is presented in millimoles of activator per liter of solution (mM). Alternatively, an emulsion of the activator was prepared by adding the solvent to an excess amount of activator. The resulting emulsion was separated from the undissolved solids by decanting the emulsion into a tared vial. Solvent was then added dropwise until the emulsion became homogeneous. The mass of the final solution was measured and then the solvent was evaporated to dryness to obtain the mass of the activator. The concentration of the saturated solution is presented in millimoles of activator per liter of solution (mM).

[2] = as above; type: physicochemical; conditions: methylcyclohexane
[3] = Propylene homopolymerization in parallel pressure reactor, MCN-1 with ammonium borate activators; conditions: propylene, MCN-1 = 20 nmol, activator = 20 nmol, isohexane, TNOAL 500 nmol
Source text: Polymerization in Parallel Pressure Reactor
Solvents, polymerization-grade toluene, and isohexane were supplied by ExxonMobil Chemical Company and purified by passing through a series of columns: two 500 cc Oxyclear cylinders in series from Labclear (Oakland, Calif.), followed by two 500 cc columns in series packed with dried 3 Å mole sieves (8-12 mesh; Aldrich Chemical Company), and two 500 cc columns in series packed with dried 5 Å mole sieves (8-12 mesh; Aldrich Chemical Company). 1-octene (C8) and 1-hexene (C6) (98%, Aldrich Chemical Company) were dried by stirring over NaK overnight followed by filtration through basic alumina (Aldrich Chemical Company, Brockman Basic 1).
Solutions of the metal complexes and activators were prepared in a drybox using toluene or methylcyclohexane. Concentrations were typically 0.2 mmol/L. Tri-n-octylaluminum (TNOAL, neat, AkzoNobel) was typically used as a scavenger. Concentration of the TNOAL solution in toluene ranged from 0.5 to 2.0 mmol/L.
Polymerizations were carried out in a parallel pressure reactor, as generally described in U.S. Pat. Nos. 6,306,658; 6,455,316; 6,489,168; WO 00/09255; and Murphy, V. et al. (2003) “A Fully Integrated High-Throughput Screening Methodology for the Discovery of New Polyolefin Catalysts: Discovery of a New Class of High Temperature Single-Site Group (IV) Copolymerization Catalysts,” J. Am. Chem. Soc., v. 125, pp. 4306-4317, each of which is fully incorporated herein by reference. […] Although the specific quantities, temperatures, solvents, reactants, reactant ratios, pressures, and other variables are frequently changed from one polymerization run to the next, the following describes a typical polymerization performed in a parallel pressure reactor.
Catalyst systems dissolved in solution were used in the polymerization examples below, unless specified otherwise.
RUN A: Propylene Homopolymerization (PP).
The reactor was prepared as described above and purged with propylene. For the examples in Table 2, the catalyst and activator solutions were prepared in toluene. […] Isohexane was then injected into each vessel at room temperature followed by a predetermined amount of propylene gas. The reactor was heated to the set temperature while stirring at 800 rpm, and the scavenger, activator and catalyst solutions were injected sequentially to each vessel. The polymerization was allowed to proceed as described previously.
A series of propylene polymerizations were performed in parallel pressure reactors (PPRs) developed by Symyx Technologies, Inc. In these polymerizations, the metallocene rac-dimethylsilyl-bis(indenyl)hafnium dimethyl (MCN-1) was used along with several different ammonium borate activators. Polymerizations were performed at 85° C. and 100° C.
Propylene homopolymerization (PP).
A series of propylene polymerizations were performed in the parallel pressure reactor similar to the procedure described above. In these studies rac-dimethylsilyl-bis(indenyl)hafnium dimethyl (MCN-1) was used along with ammonium borate activators.

[4] = RUN B: ethylene-octene polymerization in parallel pressure reactor, activator diluent toluene or methylcyclohexane; conditions: ethylene-octene copolymerization; for activity, molecular weight and co-monomer incorporation with methyl cyclohexane versus toluene as activator diluent: FIGS. 2-4; for activity: Cat 1 (MCN-1)
Protocol: RUN B: Polymerization in Parallel Pressure Reactor.
A series of ethylene-octene polymerizations were performed in the parallel pressure reactor according to the procedure described above. […] In a typical experiment an automated syringe was used to introduce into the reactor the following reagents, if utilized, in the following order: isohexane (0.35 mL), an isohexane solution of TNOAL scavenger (0.005 M, 60 μL), additional isohexane (0.35 mL), a toluene solution of the respective polymerization catalyst (150 μL, 0.4 mM, 20 nm [cat]/100 μL [toluene]), additional isohexane (0.35 mL), a toluene or methylcyclohexane solution of the respective activator (150 μL, 0.4 mM, (20 nm [act]/100 μL[ diluent])), then additional isohexane so that the total solvent volume for each run was 5 mL. Catalyst and activator were used in a 1:1 ratio. Each reaction was performed at a specified temperature range between 50 and 120° C., typically 95° C., while applying about 100 psig of ethylene (monomer) gas. Each reaction was allowed to run for about 1 hour (˜3600 seconds) or until approximately 20 psig of ethylene gas uptake was observed, at which point the reactions were quenched with air (˜300 psig). When sufficient polymer yield was attained (e.g., at least ˜10 mg), the polyethylene product was analyzed by Rapid GPC, described below.
In a typical experiment, the anilinium borate activators were combined with toluene or methylcyclohexane as diluent and introduced to the parallel, pressure reactor via syringe. By this mechanism of activator introduction, only well dissolved activators could be delivered to the reactor providing a means to discriminate between the polymerization performance of long chain soluble anilinium borates vs. conventional anilinium borates. Following addition of activator, the catalyst Cat 1 was introduced, via syringe as well-dissolved toluene solution and the polymerization was conducted per the methodology described above.

[5] = activator diluent MeCy (methylcyclohexane)

Solubility limit in i-hexane (mM at 25° C.) [1]: 2.0 mM
Solubility limit in i-hexane (wt % at 25° C.) [1]: 0.32 wt %
Solubility limit in MeCy (mM at 25° C.) [1]: 21 mM
Solubility limit in MeCy (wt % at 25° C.) [2]: 3.0 wt %
Molecule: CCCCCCCCCC[NH+](CCCCCCCCCC)c1ccc(CCCC)cc1.Fc1c(F)c(F)c([B-](c2c(F)c(F)c(F)c(F)c2F)(c2c(F)c(F)c(F)c(F)c2F)c2c(F)c(F)c(F)c(F)c2F)c(F)c1F [DDBAH-BF20, 4-butyl-N,N-didecylbenzenaminium-BF20]

Solubility limit in i-hexane (mM at 25° C.) [1]: 1.5 mM
Solubility limit in i-hexane (wt % at 25° C.) [1]: 0.22 wt %
Solubility limit in MeCy (mM at 25° C.) [1]: 1.7 mM
Solubility limit in MeCy (wt % at 25° C.) [2]: 0.21 wt %
Molecule: CCCCCCCCCC[NH+](CCCCCCCCCC)c1ccc(C)cc1.Fc1c(F)c(F)c([B-](c2c(F)c(F)c(F)c(F)c2F)(c2c(F)c(F)c(F)c(F)c2F)c2c(F)c(F)c(F)c(F)c2F)c(F)c1F [DDTH-BF20, N,N-didecyl-4-methylanilinium-BF20]

Solubility limit in i-hexane (mM at 25° C.) [1]: 1.8 mM
Solubility limit in i-hexane (wt % at 25° C.) [1]: 0.35 wt %
Solubility limit in MeCy (mM at 25° C.) [1]: 3.7 mM
Solubility limit in MeCy (wt % at 25° C.) [2]: 0.63 wt %
Molecule: CCCCCCCCCC[NH+](CCCCCCCCCC)c1ccc(C)cc1.Fc1c(F)c(F)c2c(F)c([B-](c3c(F)c(F)c4c(F)c(F)c(F)c(F)c4c3F)(c3c(F)c(F)c4c(F)c(F)c(F)c(F)c4c3F)c3c(F)c(F)c4c(F)c(F)c(F)c(F)c4c3F)c(F)c(F)c2c1F [DDTH-BF28, N,N-didecyl-4-methylanilinium-BF28]

Solubility limit in i-hexane (mM at 25° C.) [1]: 7.6 mM
Solubility limit in i-hexane (wt % at 25° C.) [1]: 0.70 wt %
Solubility limit in MeCy (mM at 25° C.) [1]: >180 mM
Solubility limit in MeCy (wt % at 25° C.) [2]: >42 wt %
Molecule: CCCCCCCCCCCCCCCCCC[NH+](CCCCCCCCCCCCCCCCCC)c1c(C)cc(C)cc1C.Fc1c(F)c(F)c2c(F)c([B-](c3c(F)c(F)c4c(F)c(F)c(F)c(F)c4c3F)(c3c(F)c(F)c4c(F)c(F)c(F)c(F)c4c3F)c3c(F)c(F)c4c(F)c(F)c(F)c(F)c4c3F)c(F)c(F)c2c1F [DOdMH-BF28, 2,4,6-trimethyl-N,N-dioctadecylbenzenaminium-BF28]

Solubility limit in i-hexane (mM at 25° C.) [1]: 2.9 mM
Solubility limit in i-hexane (wt % at 25° C.) [1]: 1.9 wt %
Solubility limit in MeCy (mM at 25° C.) [1]: > 200 mM
Solubility limit in MeCy (wt % at 25° C.) [2]: >40 wt %
Molecule: CCCCCCCCCCCCCCCCCC[NH+](CCCCCCCCCCCCCCCCCC)c1ccccc1C(C)C.Fc1c(F)c(F)c2c(F)c([B-](c3c(F)c(F)c4c(F)c(F)c(F)c(F)c4c3F)(c3c(F)c(F)c4c(F)c(F)c(F)c(F)c4c3F)c3c(F)c(F)c4c(F)c(F)c(F)c(F)c4c3F)c(F)c(F)c2c1F [DOdPAH-BF28, 2-isopropyl-N,N-dioctadecylbenzenaminium-BF28]

Continued, molecule first:

Molecule: CCCCCCCCCC[NH+](CCCCCCCCCC)c1ccc(CCCC)cc1.Fc1c(F)c(F)c2c(F)c([B-](c3c(F)c(F)c4c(F)c(F)c(F)c(F)c4c3F)(c3c(F)c(F)c4c(F)c(F)c(F)c(F)c4c3F)c3c(F)c(F)c4c(F)c(F)c(F)c(F)c4c3F)c(F)c(F)c2c1F [DDBAH-BF28, 4-butyl-N,N-didecylbenzenaminium-BF28]
Solubility limit in i-hexane (mM at 25° C.) [1]: 2.2 mM
Solubility limit in i-hexane (wt % at 25° C.) [1]: 0.47 wt %
Solubility limit in MeCy (mM at 25° C.) [1]: 17 mM
Solubility limit in MeCy (wt % at 25° C.) [2]: 3.3 wt %

Molecule: CCCCCCc1ccc([NH+](C)C)cc1.Fc1c(F)c(F)c([B-](c2c(F)c(F)c(F)c(F)c2F)(c2c(F)c(F)c(F)c(F)c2F)c2c(F)c(F)c(F)c(F)c2F)c(F)c1F [Hex-DMAH-BF20, 4-hexyl-N,N-dimethylanilinium-BF20]
activity ([3]; 85 °C, 135 psi): 150 kg/mmol/h and 163 kg/mmol/h and 192 kg/mmol/h
activity ([3]; 100 °C, 150 psi): 47 kg/mmol/h and 81 kg/mmol/h and 75 kg/mmol/h

Molecule: CCCCCCCCCCCCCCCCCC[NH+](C)c1ccc(CCCC)cc1.Fc1c(F)c(F)c2c(F)c([B-](c3c(F)c(F)c4c(F)c(F)c(F)c(F)c4c3F)(c3c(F)c(F)c4c(F)c(F)c(F)c(F)c4c3F)c3c(F)c(F)c4c(F)c(F)c(F)c(F)c4c3F)c(F)c(F)c2c1F [LCSA 1]
activity, molecular weight and co-monomer incorporation with methyl cyclohexane versus toluene as activator diluent ([4]; Cat 1): remain approximately the same
activity [4, 5]: 332.7 kg/mmol/h and 377.7 kg/mmol/h and 393.6 kg/mmol/h and 367.2 kg/mmol/h
activity ([4]; activator diluent Toluene): 413.4 kg/mmol/h and 510.6 kg/mmol/h and 426.4 kg/mmol/h and 452.7 kg/mmol/h

Molecule: CCCCCCCCCCCCCCCCCCc1ccc([NH+](C)CCCCCCCCCCCCCCCCCC)cc1.Fc1c(F)c(F)c2c(F)c([B-](c3c(F)c(F)c4c(F)c(F)c(F)c(F)c4c3F)(c3c(F)c(F)c4c(F)c(F)c(F)c(F)c4c3F)c3c(F)c(F)c4c(F)c(F)c(F)c(F)c4c3F)c(F)c(F)c2c1F [LCSA 2]
activity, molecular weight and co-monomer incorporation with methyl cyclohexane versus toluene as activator diluent ([4]; Cat 1): remain approximately the same
activity [4, 5]: 451.4 kg/mmol/h and 388.5 kg/mmol/h and 412.4 kg/mmol/h and 455.5 kg/mmol/h
activity ([4]; activator diluent Toluene): 477.7 kg/mmol/h and 430.3 kg/mmol/h and 405.6 kg/mmol/h and 423.2 kg/mmol/h

Molecule: CCCCCCCCCCCCCCCCCCc1ccc([NH+](CCCCCCCCCCCCCCCCCC)CCCCCCCCCCCCCCCCCC)cc1.Fc1c(F)c(F)c2c(F)c([B-](c3c(F)c(F)c4c(F)c(F)c(F)c(F)c4c3F)(c3c(F)c(F)c4c(F)c(F)c(F)c(F)c4c3F)c3c(F)c(F)c4c(F)c(F)c(F)c(F)c4c3F)c(F)c(F)c2c1F [LCSA 3]
activity, molecular weight and co-monomer incorporation with methyl cyclohexane versus toluene as activator diluent ([4]; Cat 1): remain approximately the same
activity [4, 5]: 280.6 kg/mmol/h and 257.6 kg/mmol/h and 334.9 kg/mmol/h and 360.9 kg/mmol/h
activity ([4]; activator diluent Toluene): 290.6 kg/mmol/h and 278.0 kg/mmol/h and 289.7 kg/mmol/h and 278.3 kg/mmol/h

Molecule: N,N-dimethyl anilinium tetrakis(perfluorobiphenyl) [C3, reference compound]
quantity of polymer obtained with methylcyclohexane as diluent ([4]; Cat 1, activator in methylcyclohexane): insufficient for analysis
activity ([4]; activator diluent Toluene): 692.3 kg/mmol/h and 711.1 kg/mmol/h and 841.8 kg/mmol/h and 803.7 kg/mmol/h
